The subject of experiment [1] is BEAS-2B cells. The experiment can be described thus: Release of CXCL9, CXCL10 and CXCL11 from BEAS-2B cells (ELISA), inhibitors added 1h before stimulus. The experiment is classed as cell-based, human. The note with it: BEAS-2B. Here is the method:
(§1) BEAS-2B cells (catalogue number CRL-9609) were purchased directly from American Type Culture Collection (Rockville, MD). Keratinocyte serum-free medium (K-SFM), bovine pituitary extract (BPE), and recombinant human epidermal growth factor (EGF) were purchased from Invitrogen (Paisley, UK). BEAS-2B cells were cultured in K-SFM containing 50 μg/ml BPE and 5 ng/ml EGF at 37°C in a humidified atmosphere comprising 5% (v/v) CO2 in air. Cells were cultured as monolayers in growth factor-free media for 24 h prior to stimulation. Human primary airway epithelial cells were cultured as monolayers from bronchial brushings from both male and female subjects (Table 1) and cultured in LHC-9 media (Invitrogen, Paisley, UK) in collagen (1% w/v) coated flasks. Samples were obtained from non-smokers, smokers and patients with COPD. […] The subjects were matched for age and smokers and COPD patients for smoking history (Table 1). All subjects gave informed written consent and the study was approved by the NRES London-Chelsea Research Ethics committee, study number 09/H0801/85.
(§2) Cell-free supernatants were removed 20h post-stimulation and assayed for CXCL9, CXCL10 and CXCL11 using Duoset ELISA kits (R & D Systems Europe, Abingdon, UK) according to the manufacturer’s instructions. The detection limits of these assays are 62pg/ml, 31pg/ml, and 7.8 pg/ml respectively.
(§3) Data are presented as mean ± SEM of ‘n’ independent determinations. Concentration-response curves were analysed by least-squares, non-linear iterative regression with the ‘Graphpad Prism’ curve fitting program (GraphPad software, San Diego, USA) and IC50 values were subsequently interpolated from curves of best-fit. Statistical differences were determined using the Kruskal–Wallis test followed by Dunn's multiple comparison test or a Wilcoxon signed rank test as appropriate. Values of P<0.05 were considered significant.
Media was harvested and the concentrations of CXCL9 (panels a and d), CXCL10 (panels b and e) and CXCL11 (panels c and f) were measured by ELISA. Data are presented as mean±SEM, n = 7–8.
In general terms: An ELISA detects its analyte on a solid surface through an enzyme-linked reagent.

Experiment [2] relates to BEAS-2B cells. Put plainly: mRNA expression of CXCL9, CXCL10 and CXCL11 in BEAS-2B cells (Taqman RT-PCR). The class given is cell-based, human. Conditions: BEAS-2B, 10^-6M, IFNγ or IFNγ + TNFα. How it is done:
Total RNA was extracted from cells and reverse transcribed, as described previously. Gene expression was determined by Taqman real-time PCR on a 7500 Real Time PCR system (Applied Biosystems, Life Technologies Ltd, Paisley, UK) using PCR Master Mix Reagent and ‘assays on demand’ (Applied Biosystems). HPRT1 gene expression was used as the housekeeping gene and data presented as δδCT relative to baseline.
Gene expression of CXCL9 (panels a and b), CXCL10 (panels c and d) and CXCL11 (panels e and f) were quantified by Taqman RT-PCR. Data are presented as fold change form stimulus ± SEM; n = 3 where 1 indicates the level of mRNA induced by IFNγ or IFNγ + TNFα in the absence of inhibitors.

Experiment [3] concerns human primary airway epithelial cells. Put plainly: Release of CXCL9, CXCL10 and CXCL11 from human primary airway epithelial cells (ELISA). Conditions: human primary airway epithelial cells, IFNγ or IFNγ+TNFα. The class given is cell-based. How it is done:
as §1, §2, §3
Media was harvested and the concentrations of CXCL9 (panels a and d), CXCL10 (panels b and e) and CXCL11 (panels c and f) were measured by ELISA. Data are presented as mean ± SEM, n = 10–13.

Experiment [4] concerns BEAS-2B cells. The experiment can be described thus: IL-6 release from IFNγ + TNFα-stimulated BEAS-2B cells. The class given is cell-based, human. Here is the method:
(§4) In order to determine whether any of the inhibitory effects of the JAK inhibitors could be attributed to cell death, MTT assays were performed at the end of every experiment. […] In order to address this issue, the levels of IL-6 released from cells stimulated with IFNγ + TNFα were measured.

Experiment [5] relates to human primary airway epithelial cells. The experiment can be described thus: IL-6 release from IFNγ + TNFα-stimulated human primary airway epithelial cells. The class given is cell-based. Conditions: IFNγ + TNFα. Here is the method:
as §4

The IC50 is the concentration that inhibits the measured activity by half. Consider `C[C@@H]1C[C@H]2[C@@H]3CCC4=CC(=O)C=C[C@]4(C)[C@@]3(F)[C@@H](O)C[C@]2(C)[C@@]1(O)C(=O)CO` [dexamethasone], for which the “effect on CXCL9 and CXCL11 release” value in the experiment on BEAS-2B cells [1] (IFNγ or IFNγ+TNFα) was “very limited effect”. The “maximal inhibitory effect on release of CXCL10” value with BEAS-2B cells [1] (IFNγ-stimulated) is on record as ~ 50%. In the experiment on BEAS-2B cells [1] (stimulation with IFNγ and TNFα together), the “inhibitory effect on release of CXCL10” value is reported as “none”. Moreover, the “effect on gene transcription of CXCL9, CXCL10 and CXCL11” value in the experiment with BEAS-2B cells [2] is recorded as “no effect on gene transcription”. Also, the “effect on CXCR3 chemokine release” value in experiment [3] is “did not suppress”. The “suppression of IL-6 release” value (with BEAS-2B cells [4]; in experiment [5]) was 50–70% each time. Further, the half-maximal inhibitory concentration (IC50) came out at 0.016 ± 0.008 µM with BEAS-2B cells [4] (Homo sapiens) and 0.011 ± 0.007 µM in experiment [5] (Homo sapiens, Epithelial cell).

The record behind these values is paper PMC4474874, “Effect of JAK Inhibitors on Release of CXCL9, CXCL10 and CXCL11 from Human Airway Epithelial Cells” (PLoS ONE, 2015).
